# Reference: patent US6358885B1, “Substituted phenylheterocyclic herbicides” (Mississippi State University, priority 1992, dated 2002)
# Key:
# [1] = test system: chickweed; assay: Test B preemergence/postemergence greenhouse plant response rating 0 to 10; format: in vivo, Stellaria media; conditions: PREEMERGENCE, 0 to 10 scale
# Method in brief: (§1)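 Planted seeds are treated preemergence with compound dissolved in a non-phytotoxic solvent, while postemergence applications go onto plants of two to eighteen cm. Plants stay in the greenhouse twelve to sixteen days and are then rated visually relative to controls.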
# [2] = test system: ryegrass; assay: Test C preemergence/postemergence greenhouse plant response rating 0 to 100; format: in vivo, Lolium multiflorum; conditions: for Plant response rating Ryegrass: 0 to 100 scale
# From the text: (§2) The compounds evaluated in this test were formulated in a non-phytoxic solvent and applied to the soil surface before plant seedlings emerged (preemergence application), to water that covered the soil surface (flood application), and to plants that were in the one-to-four leaf stage (postemergence application). A sandy loam soil was used for the preemergence and postemergence tests, while a silt loam soil was used in the flood test. Water depth was approximately 2.5 cm for the flood test and was maintained at this level for the duration of the test. Plant species in the preemergence and postemergence tests consisted of barley (Hordeum vulgare), bedstraw (Galium aparine), blackgrass (Alopecurus myosuroides), chickweed (Stellaria media), corn (Zea mays), cotton (Gossypium hirsutum), crabgrass (Digitaria sanguinalis), downy brome (Bromus tectorum), giant foxtail (Setaria faberii), lambsquarters (Chenopodium album), morningglory (Ipomoea hederacea), pigweed ([…]), rape (Brassica napus), ryegrass (Lolium multiflorum), sorghum (Sorghum bicolor), soybean (Glycine max), speedwell (Veronica persica), sugar beet (Beta vulgaris), velvetleaf (Abutilon theophrasti), wheat (Triticum aestivum), wild buckwheat (Polygonum convolvulus), and wild oat (Avena fatua). All plant species were planted one day before application of the compound for the preemergence portion-of this test. Plantings of these species were adjusted to produce plants of appropriate size for the post-emergence portion of the test. […] All plant species were grown using normal greenhouse practices. Visual evaluations of injury expressed on treated plants, when compared to untreated controls, were recorded approximately fourteen to twenty one days after application of the test compound. […] A dash (-) response means no test result.
# [3] = test system: giant foxtail; assay: Test B preemergence/postemergence greenhouse plant response rating 0 to 10; format: in vivo, Setaria faberii; conditions: 0 to 10 scale
# Method in brief: as §1
# [4] = test system: wild oat; assay: as above; format: in vivo, Avena fatua; conditions: 0 to 10 scale
# Method in brief: as §1
# [5] = test system: sugar beet; assay: Test C preemergence/postemergence greenhouse plant response rating 0 to 100; format: in vivo, Beta vulgaris; conditions: for Plant response rating, Sugar beet: 0 to 100 scale
# From the text: as §2
# [6] = test system: downy brome; assay: as above; format: in vivo, Bromus tectorum; conditions: for Plant response rating Downy Brome: 0 to 100 scale
# From the text: as §2
# [7] = test system: velvetleaf; assay: as above; format: in vivo, Abutilon theophrasti; conditions: for Plant response rating, Velvetleaf: 0 to 100 scale
# From the text: as §2
# [8] = test system: duck salad; assay: Test C flood test plant response rating 0 to 100; format: in vivo, Heteranthera limosa; conditions: for Plant response rating Duck salad: flood test species listed under POSTEMERGENCE, 0 to 100 scale
# From the text: as §2
# [9] = test system: wild buckwheat; assay: Test B preemergence/postemergence greenhouse plant response rating 0 to 10; format: in vivo, Polygonum convolvulus; conditions: 0 to 10 scale
# Method in brief: as §1
# [10] = test system: wild buckwheat; assay: Test C preemergence/postemergence greenhouse plant response rating 0 to 100; format: in vivo, Polygonum convolvulus; conditions: for Plant response rating, Wild buckwheat: 0 to 100 scale
# From the text: as §2
smiles,measurement,setting,value
C#CCOc1cc(-c2nn3c(c2Br)CCCC3)c(F)cc1Cl [Compound 26],"Plant response rating, Chickweed",[1]; Rate 50 g/ha,10
same,"Plant response rating, Chickweed",[1]; Rate 200 g/ha,10
same,Plant response rating Ryegrass,"[2]; POSTEMERGENCE, 62 g/ha",30
same,Plant response rating Ryegrass,"[2]; POSTEMERGENCE, 250 g/ha",50
same,"Plant response rating (0 to 100), Ryegrass","[2]; POSTEMERGENCE, Rate 4 g/ha",20
same,Plant response rating Ryegrass,"[2]; PREEMERGENCE, 62 g/ha",0
same,Plant response rating Ryegrass,"[2]; PREEMERGENCE, 250 g/ha",20
same,"Plant response rating (0 to 100), Ryegrass","[2]; PREEMERGENCE, Rate 4 g/ha",0
same,"Plant response rating (0 to 100), Ryegrass","[2]; Rate 16 g/ha, POSTEMERGENCE",20
same,"Plant response rating (0 to 100), Ryegrass","[2]; Rate 16 g/ha, PREEMERGENCE",0
same,"Plant response rating, Giant foxtail","[3]; POSTEMERGENCE, Rate 50 g/ha",4
same,"Plant response rating, Giant foxtail","[3]; POSTEMERGENCE, Rate 200 g/ha",6
same,"Plant response rating, Giant foxtail","[3]; PREEMERGENCE, Rate 50 g/ha",6
same,"Plant response rating, Giant foxtail","[3]; Rate 200 g/ha, PREEMERGENCE",10
same,"Plant response rating, Wild oat","[4]; POSTEMERGENCE, Rate 50 g/ha",5
same,"Plant response rating, Wild oat","[4]; POSTEMERGENCE, Rate 200 g/ha",7
same,"Plant response rating, Wild oat","[4]; Rate 200 g/ha, PREEMERGENCE",6
same,"Plant response rating, Sugar beet","[5]; POSTEMERGENCE, 62 g/ha",100
same,"Plant response rating, Sugar beet","[5]; POSTEMERGENCE, 250 g/ha",100
same,"Plant response rating (0 to 100), Sugar beet","[5]; POSTEMERGENCE, Rate 4 g/ha",100
same,"Plant response rating, Sugar beet","[5]; PREEMERGENCE, 250 g/ha",100
same,"Plant response rating (0 to 100), Sugar beet","[5]; PREEMERGENCE, Rate 4 g/ha",0
same,"Plant response rating (0 to 100), Sugar beet","[5]; Rate 16 g/ha, POSTEMERGENCE",100
same,"Plant response rating (0 to 100), Sugar beet","[5]; Rate 16 g/ha, PREEMERGENCE",20
same,Plant response rating Downy Brome,"[6]; POSTEMERGENCE, 62 g/ha",50
same,Plant response rating Downy Brome,"[6]; POSTEMERGENCE, 250 g/ha",70
same,"Plant response rating (0 to 100), Downy Brome","[6]; POSTEMERGENCE, Rate 4 g/ha",20
same,Plant response rating Downy Brome,"[6]; PREEMERGENCE, 62 g/ha",0
same,Plant response rating Downy Brome,"[6]; PREEMERGENCE, 250 g/ha",20
same,"Plant response rating (0 to 100), Downy Brome","[6]; PREEMERGENCE, Rate 4 g/ha",0
same,"Plant response rating (0 to 100), Downy Brome","[6]; Rate 16 g/ha, POSTEMERGENCE",40
same,"Plant response rating (0 to 100), Downy Brome","[6]; Rate 16 g/ha, PREEMERGENCE",0
same,"Plant response rating, Velvetleaf","[7]; POSTEMERGENCE, 62 g/ha",100
same,"Plant response rating, Velvetleaf","[7]; POSTEMERGENCE, 250 g/ha",100
same,"Plant response rating (0 to 100), Velvetleaf","[7]; POSTEMERGENCE, Rate 4 g/ha",90
same,"Plant response rating, Velvetleaf","[7]; PREEMERGENCE, 250 g/ha",100
same,"Plant response rating (0 to 100), Velvetleaf","[7]; PREEMERGENCE, Rate 4 g/ha",50
same,"Plant response rating (0 to 100), Velvetleaf","[7]; Rate 16 g/ha, POSTEMERGENCE",100
same,"Plant response rating (0 to 100), Velvetleaf","[7]; Rate 16 g/ha, PREEMERGENCE",90
same,"Plant response rating (0 to 100), Duck salad","[8]; POSTEMERGENCE section, flood test, Rate 4 g/ha",55
same,"Plant response rating (0 to 100), Duck salad","[8]; Rate 16 g/ha, under POSTEMERGENCE head (flood test species)",60
same,Plant response rating Duck salad,[8]; 62 g/ha,70
same,Plant response rating Duck salad,[8]; 250 g/ha,90
same,"Plant response rating, Wild buckwheat","[9]; POSTEMERGENCE, Rate 50 g/ha",10
same,"Plant response rating, Wild buckwheat","[9]; POSTEMERGENCE, Rate 200 g/ha",10
same,"Plant response rating, Wild buckwheat","[9]; PREEMERGENCE, Rate 50 g/ha",7
same,"Plant response rating, Wild buckwheat","[9]; Rate 200 g/ha, PREEMERGENCE",10
same,"Plant response rating, Wild buckwheat","[10]; POSTEMERGENCE, 62 g/ha",100
same,"Plant response rating, Wild buckwheat","[10]; POSTEMERGENCE, 250 g/ha",100
same,"Plant response rating (0 to 100), Wild buckwheat","[10]; POSTEMERGENCE, Rate 4 g/ha",50
same,"Plant response rating, Wild buckwheat","[10]; PREEMERGENCE, 250 g/ha",100
same,"Plant response rating (0 to 100), Wild buckwheat","[10]; PREEMERGENCE, Rate 4 g/ha",20
same,"Plant response rating (0 to 100), Wild buckwheat","[10]; Rate 16 g/ha, POSTEMERGENCE",80
same,"Plant response rating (0 to 100), Wild buckwheat","[10]; Rate 16 g/ha, PREEMERGENCE",80
